Numbered stars: 1 amine (or outer) side, 2 acyl side, 3 side chain; on linkers, the order of the positions; unused ones are H or OH. Bridge positions count the residues as written; N and C are the ends. Square brackets hold non-standard residues; d marks the D form. Peptide text beside a SMILES is read from it. ξ: configuration not given here. mXylylene = c1cc(C[*:1])cc(C[*:2])c1; αMeF = C[C@](N)(Cc1ccccc1)C(=O)O; 4Pal = N[C@@H](Cc1ccncc1)C(=O)O; Aic = NC1(C(=O)O)Cc2ccccc2C1; ξM = CSCCC(N)C(=O)O
Columns and labels:
Human recombinant FAP = target: T1, Human recombinant FAP (Homo sapiens, UniProt Q12884); assay: FRET-based FAP protease activity assay; assay type: biochemical; set-up: purchased R&D systems 3715-SE; conditions: pIC50 Category (Activity), recombinant human FAP, FRET substrate, 37° C.
T1 sequence (Q12884 1-760): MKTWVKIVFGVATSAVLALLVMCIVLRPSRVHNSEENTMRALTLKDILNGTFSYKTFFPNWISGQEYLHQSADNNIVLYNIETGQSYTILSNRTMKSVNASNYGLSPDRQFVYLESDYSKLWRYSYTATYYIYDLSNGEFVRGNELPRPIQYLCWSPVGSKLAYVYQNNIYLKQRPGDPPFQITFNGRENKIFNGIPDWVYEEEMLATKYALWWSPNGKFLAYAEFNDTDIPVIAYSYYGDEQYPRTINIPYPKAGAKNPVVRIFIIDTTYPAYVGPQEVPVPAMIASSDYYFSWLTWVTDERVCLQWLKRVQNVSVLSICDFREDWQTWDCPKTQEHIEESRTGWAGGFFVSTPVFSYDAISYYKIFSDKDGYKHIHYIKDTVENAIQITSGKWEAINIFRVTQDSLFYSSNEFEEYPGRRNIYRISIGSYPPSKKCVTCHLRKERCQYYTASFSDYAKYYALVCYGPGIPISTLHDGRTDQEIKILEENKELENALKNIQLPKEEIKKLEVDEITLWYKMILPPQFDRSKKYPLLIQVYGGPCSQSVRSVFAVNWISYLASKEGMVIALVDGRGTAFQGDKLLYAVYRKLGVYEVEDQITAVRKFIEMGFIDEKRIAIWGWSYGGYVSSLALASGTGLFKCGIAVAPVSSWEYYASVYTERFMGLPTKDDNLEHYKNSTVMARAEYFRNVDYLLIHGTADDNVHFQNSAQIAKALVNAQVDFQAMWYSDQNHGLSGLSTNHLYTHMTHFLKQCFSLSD

[1] = target: T2, FAP-expressing human WI-38 fibroblasts (Homo sapiens, UniProt Q12884); assay: Competitive FACS binding assay; conditions: pIC50 Category (FACS), competition with 3 nM Cy5-labeled compound, WI-38 fibroblasts, 4° C., 1 hour
T2 construct: FAP-expressing human WI-38 fibroblasts (ECACC) were cultured in EMEM; host or cells: WI-38 human fibroblasts
T2 sequence (Q12884 1-760): T1 sequence (Q12884 1-760)
Description: Cells were analyzed in an Attune NxT flow cytometer. […]

[2] = Plasma stability assay, mouse plasma; assay type: in vitro ADME; conditions: 4 h incubation, 37° C., read-out: % intact compound remaining after incubation, Mouse plasma

SMILES	IC50 (Human recombinant FAP) [nM]	IC50 [1] [nM]	remaining at 4 h, 9.8 µM [2] [%]
CSCC[C@H](NC(C)=O)C(=O)N[C@@H]1CSCc2cccc(c2)CSC[C@H](C(=O)N[C@@H](CC(=O)O)C(=O)N[C@@H](Cc2c[nH]cn2)C(=O)N[C@@H](Cc2ccccc2)C(=O)N[C@@H](CCCNC(=N)N)C(=O)N[C@@H](CC(=O)O)C(N)=O)NC(=O)[C@H](Cc2ccccc2)NC(=O)[C@H](CCC(=O)O)NC(=O)[C@H]([C@@H](C)O)NC(=O)[C@@H]2CCCN2C(=O)[C@@H]2CCCN2C1=O [3BP-3181, Ac-Metqcys(3MeBn)-Pro-Pro-Thr-Glu-Phe-cys]-Asp-His-Phe-Arg-Asp-NH2] (Ac-M[dC]PPTEF[dC]DHFRD-NH2; linker 2-8 via mXylylene)	–	–	100
CSCC[C@H](NC(C)=O)C(=O)N[C@H]1CSCc2cccc(c2)CSC[C@@H](C(=O)N[C@@H](CC(=O)O)C(=O)N[C@@H](Cc2c[nH]cn2)C(=O)N(C)[C@@H](Cc2ccccc2)C(=O)N[C@@H](CCCNC(=N)N)C(=O)N[C@@H](CC(=O)O)C(N)=O)NC(=O)[C@H](Cc2ccccc2)NC(=O)[C@H](CCC(=O)O)NC(=O)[C@H]2NC(=O)[C@@H]3C(CCN3C(=O)[C@@H]3CCCN3C1=O)[C@H]2O [3BP-3188, Ac-Met-[Cys(3MeBn)-Pro-Pro-Thr-Glu-Phe-Cys]-Asp-His-Nmf-Arg-Asp-NH2]	< 10	< 10	97
CSCC[C@H](NC(C)=O)C(=O)N[C@H]1CSCc2cccc(c2)CSC[C@@H](C(=O)N[C@@H](CC(=O)O)C(=O)N[C@@H](Cc2c[nH]cn2)C(=O)N2Cc3ccccc3C[C@H]2C(=O)N[C@@H](CCCNC(=N)N)C(=O)N[C@@H](CC(=O)O)C(N)=O)NC(=O)[C@H](Cc2ccccc2)NC(=O)[C@H](CCC(=O)O)NC(=O)[C@H]2NC(=O)[C@@H]3C(CCN3C(=O)[C@@H]3CCCN3C1=O)[C@H]2O [3BP-3189, Ac-Met-[Cys(3MeBn)-Pro-Pro-Thr-Glu-Phe-Cys]-Asp-His-Tic-Arg-Asp-NH2]	< 10	< 10	100
CSCC[C@H](NC(C)=O)C(=O)N[C@H]1CSCc2cccc(c2)CSC[C@@H](C(=O)N[C@@H](CC(=O)O)C(=O)N[C@@H](Cc2c[nH]cn2)C(=O)NC2(C(=O)N[C@@H](CCCNC(=N)N)C(=O)N[C@@H](CC(=O)O)C(N)=O)Cc3ccccc3C2)NC(=O)[C@H](Cc2ccccc2)NC(=O)[C@H](CCC(=O)O)NC(=O)[C@H]([C@@H](C)O)NC(=O)[C@@H]2CCCN2C(=O)[C@@H]2CCCN2C1=O [3BP-3190, Ac-Met-[Cys(3MeBn)-Pro-Pro-Thr-Glu-Phe-Cys]-Asp-His-Aic-Arg-Asp-NH2] (Ac-MCPPTEFCDH[Aic]RD-NH2; linker 2-8 via mXylylene)	< 10	< 10	88
CSCC[C@H](NC(C)=O)C(=O)N[C@H]1CSCc2cccc(c2)CSC[C@@H](C(=O)N[C@@H](CC(=O)O)C(=O)N[C@@H](Cc2c[nH]cn2)C(=O)N[C@@H](C)C(=O)N[C@@H](CCCNC(=N)N)C(=O)N[C@@H](CC(=O)O)C(N)=O)NC(=O)[C@H](Cc2ccccc2)NC(=O)[C@H](CCC(=O)O)NC(=O)[C@H]([C@@H](C)O)NC(=O)[C@@H]2CCCN2C(=O)[C@@H]2CCCN2C1=O [3BP-3196, Ac-Met-[Cys(3MeBn)-Pro-Pro-Thr-Glu-Phe-Cys]-Asp-His-Ala-Arg-Asp-NH2] (Ac-MCPPTEFCDHARD-NH2; linker 2-8 via mXylylene)	< 10	< 10	87
CSCC[C@H](NC(C)=O)C(=O)N[C@H]1CSCc2cccc(c2)CSC[C@@H](C(=O)N[C@@H](CC(=O)O)C(=O)N[C@H](Cc2c[nH]cn2)C(=O)N[C@@H](Cc2ccccc2)C(=O)N[C@@H](CCCNC(=N)N)C(=O)N[C@@H](CC(=O)O)C(N)=O)NC(=O)[C@H](Cc2ccccc2)NC(=O)[C@H](CCC(=O)O)NC(=O)[C@H]([C@@H](C)O)NC(=O)[C@@H]2CCCN2C(=O)[C@@H]2CCCN2C1=O [3BP-3210, Ac-Met-[Cys(3MeBn)-Pro-Pro-Thr-Glu-Phe-Cys]-Asp-his-Phe-Arg-Asp-NH2] (Ac-MCPPTEFCD[dH]FRD-NH2; linker 2-8 via mXylylene)	< 10	< 10	100

Next, values leading:

IC50 (Human recombinant FAP) [nM]	IC50 [1] [nM]	remaining at 4 h, 9.8 µM [2] [%]	SMILES
< 10	< 10	93	CSCCC(N)C(=O)N[C@H]1CSCc2cccc(c2)CSC[C@@H](C(=O)N[C@@H](CC(=O)O)C(=O)N[C@@H](Cc2c[nH]cn2)C(=O)N[C@@H](Cc2ccccc2)C(=O)N[C@@H](CCCNC(=N)N)C(=O)N[C@@H](CC(=O)O)C(N)=O)NC(=O)[C@H](Cc2ccccc2)NC(=O)[C@H](CCC(=O)O)NC(=O)[C@H]([C@@H](C)O)NC(=O)[C@@H]2CCCN2C(=O)[C@@H]2CCCN2C1=O (stereo partly drawn) [3BP-2976, H-met-[Cys(3MeBn)-Pro-Pro-Thr-Glu-Phe-Cys]-Asp-His-Phe-Arg-Asp-NH2] (H-[ξM]CPPTEFCDHFRD-NH2; linker 2-8 via mXylylene)
10 to 79.4	10 to 79.4	79	CSCC[C@H](NC(C)=O)C(=O)N[C@H]1CSCc2cccc(c2)CSC[C@@H](C(=O)N[C@@H](CC(=O)O)C(=O)N[C@@H](Cc2c[nH]cn2)C(=O)N[C@@H](Cc2ccccc2)C(=O)N[C@@H](CCCNC(=N)N)C(=O)N[C@@H](CC(=O)O)C(N)=O)NC(=O)[C@H](Cc2ccccc2)NC(=O)[C@H](CCC(=O)O)NC(=O)[C@H]([C@@H](C)O)NC(=O)[C@H]2CCCN2C(=O)[C@@H]2CCCN2C1=O [3BP-3177, Ac-Met-[Cys(3MeBn)-Pro-pro-Thr-Glu-Phe-Cys]-Asp-His-Phe-Arg-Asp-NH2] (Ac-MCP[dP]TEFCDHFRD-NH2; linker 2-8 via mXylylene)
10 to 79.4	10 to 79.4	98	CSCC[C@H](NC(C)=O)C(=O)N[C@H]1CSCc2cccc(c2)CSC[C@@H](C(=O)N[C@H](CC(=O)O)C(=O)N[C@@H](Cc2c[nH]cn2)C(=O)N[C@@H](Cc2ccccc2)C(=O)N[C@@H](CCCNC(=N)N)C(=O)N[C@@H](CC(=O)O)C(N)=O)NC(=O)[C@H](Cc2ccccc2)NC(=O)[C@H](CCC(=O)O)NC(=O)[C@H]([C@@H](C)O)NC(=O)[C@@H]2CCCN2C(=O)[C@@H]2CCCN2C1=O [3BP-3183, Ac-Met-[Cys(3MeBn)-Pro-Pro-Thr-Glu-Phe-Cys]-asp-His-Phe-Arg-Asp-NH2] (Ac-MCPPTEFC[dD]HFRD-NH2; linker 2-8 via mXylylene)
< 10	< 10	100	CSCC[C@H](NC(C)=O)C(=O)N[C@H]1CSCc2cccc(c2)CSC[C@@H](C(=O)N[C@@H](CC(=O)O)C(=O)N[C@@H](Cc2c[nH]cn2)C(=O)N[C@@H](Cc2ccncc2)C(=O)N[C@@H](CCCNC(=N)N)C(=O)N[C@@H](CC(=O)O)C(N)=O)NC(=O)[C@H](Cc2ccccc2)NC(=O)[C@H](CCC(=O)O)NC(=O)[C@H]([C@@H](C)O)NC(=O)[C@@H]2CCCN2C(=O)[C@@H]2CCCN2C1=O [3BP-3191, Ac-Met-[Cys(3MeBn)-Pro-Pro-Thr-Glu-Phe-Cys]-Asp-His-Ppa-Arg-Asp-NH2] (Ac-MCPPTEFCDH[4Pal]RD-NH2; linker 2-8 via mXylylene)
< 10	< 10	100	CSCC[C@H](NC(C)=O)C(=O)N[C@H]1CSCc2cccc(c2)CSC[C@@H](C(=O)N[C@@H](CC(=O)O)C(=O)N[C@@H](Cc2c[nH]cn2)C(=O)N[C@@](C)(Cc2ccccc2)C(=O)N[C@@H](CCCNC(=N)N)C(=O)N[C@@H](CC(=O)O)C(N)=O)NC(=O)[C@H](Cc2ccccc2)NC(=O)[C@H](CCC(=O)O)NC(=O)[C@H]([C@@H](C)O)NC(=O)[C@@H]2CCCN2C(=O)[C@@H]2CCCN2C1=O [3BP-3203, Ac-Met-[Cys(3MeBn)-Pro-Pro-Thr-Glu-Phe-Cys]-Asp-His-Amf-Arg-Asp-NH2] (Ac-MCPPTEFCDH[αMeF]RD-NH2; linker 2-8 via mXylylene)
< 10	< 10	85	CSCC[C@H](NC(C)=O)C(=O)N[C@H]1CSCc2cccc(c2)CSC[C@@H](C(=O)N[C@@H](CC(=O)O)C(=O)N[C@@H](Cc2c[nH]cn2)C(=O)N[C@H](Cc2ccccc2)C(=O)N[C@@H](CCCNC(=N)N)C(=O)N[C@@H](CC(=O)O)C(N)=O)NC(=O)[C@H](Cc2ccccc2)NC(=O)[C@H](CCC(=O)O)NC(=O)[C@H]([C@@H](C)O)NC(=O)[C@@H]2CCCN2C(=O)[C@@H]2CCCN2C1=O [3BP-3211, Ac-Met-[Cys(3MeBn)-Pro-Pro-Thr-Glu-Phe-Cys]-Asp-His-phe-Arg-Asp-NH2] (Ac-MCPPTEFCDH[dF]RD-NH2; linker 2-8 via mXylylene)
